Experiments:
AMARE [1] = experiment: Herbicidal action pre-emergence (PE); assay type: in vivo, Amaranthus retroflexus; conditions: dosage 320 g/ha
VIOTR [2] = experiment: Herbicidal action pre-emergence (PE); assay type: in vivo, Viola tricolor; conditions: dosage 320 g/ha
ALOMY = experiment: Herbicidal action pre-emergence (PE); assay type: in vivo, Alopecurus myosuroides; conditions: dosage 320 g/ha
SETVI [3] = experiment: Herbicidal action post-emergence (PO); assay type: in vivo, Setaria viridis; conditions: dosage 320 g/ha
AMARE [4] = experiment: Herbicidal action post-emergence (PO); assay type: in vivo, Amaranthus retroflexus; conditions: dosage 320 g/ha
VIOTR [5] = experiment: Herbicidal action post-emergence (PO); assay type: in vivo, Viola tricolor; conditions: dosage 320 g/ha
ABUTH = experiment: Herbicidal action post-emergence (PO); assay type: in vivo, Abutilon theophrasti; conditions: dosage 320 g/ha
PHBPU = experiment: Herbicidal action post-emergence (PO); assay type: in vivo, Pharbitis purpurea; conditions: dosage 320 g/ha
ECHCG = experiment: Herbicidal action pre-emergence (PE); assay type: in vivo, Echinochloa crus-galli; conditions: dosage 320 g/ha
SETVI [6] = experiment: Herbicidal action pre-emergence (PE); assay type: in vivo, Setaria viridis; conditions: dosage 320 g/ha
MATIN = experiment: Herbicidal action pre-emergence (PE); assay type: in vivo, Matricaria inodora; conditions: dosage 320 g/ha
POLCO = experiment: Herbicidal action pre-emergence (PE); assay type: in vivo, Polygonum convolvulus; conditions: dosage 320 g/ha
Pyrenophora teres = experiment: In vivo preventive test on Pyrenophora teres (net blotch on barley); conditions: 100 ppm of active ingredient; barley plants; evaluated 14 days after the inoculation
Protocol: (§1) 5) Example: In Vivo Preventive Test on Pyrenophora teres (Net Blotch on Barley) [table] The active ingredients were made soluble and homogenized in a mixture of Dimethyl sulfoxide/Acetone//Tween® 80 and then diluted in water to the desired concentration. The young plants of barley were treated by spraying the active ingredient prepared as described above. Control plants were treated only with an aqueous solution of Acetone/Dimethyl sulfoxide/Tween® 80. After 24 hours, the plants were contaminated by spraying the leaves with an aqueous suspension of Pyrenophora teres spores.

Puccinia recondita = experiment: In vivo preventive test on Puccinia recondita (brown rust on wheat); conditions: 100 ppm of active ingredient; wheat plants; evaluated 11 days after the inoculation
Protocol: as §1, with “4)” for “5)”, “Puccinia recondita (Brown Rust” for “Pyrenophora teres (Net Blotch”, “Wheat)” for “Barley)”, “wheat” for “barley”, “Puccinia recondita” for “Pyrenophora teres”

COC(=O)C(=O)Nc1nsc2c(=O)n(CC3CCCCC3)cnc12 [Example I-70]
80: ABUTH (ABUTH)
100: AMARE (AMARE [1]) | VIOTR (VIOTR [2]) | ALOMY (ALOMY) | SETVI (SETVI [3]) | AMARE (AMARE [4]) | VIOTR (VIOTR [5]) | PHBPU (PHBPU)

O=C(Nc1nsc2c(=O)n(CC3CCCCC3)cnc12)C(F)F [Example I-44]
at least 70%: efficacy (Pyrenophora teres)
100: ECHCG (ECHCG) | SETVI (SETVI [6]) | AMARE (AMARE [1]) | VIOTR (VIOTR [2]) | MATIN (MATIN) | POLCO (POLCO) | AMARE (AMARE [4]) | VIOTR (VIOTR [5]) | ABUTH (ABUTH)

CC(=O)Nc1nsc2c(=O)n(Cc3ccc(F)cc3F)cnc12 [Example I-79]
100: AMARE (AMARE [1]) | VIOTR (VIOTR [2]) | ALOMY (ALOMY) | AMARE (AMARE [4]) | VIOTR (VIOTR [5])
90: ABUTH (ABUTH)

O=C(Nc1nsc2c(=O)n(CC3CCCCC3)cnc12)C1CC1 [Example I-07]
100: AMARE (AMARE [1]) | VIOTR (VIOTR [2]) | ALOMY (ALOMY) | SETVI (SETVI [3]) | AMARE (AMARE [4]) | VIOTR (VIOTR [5]) | PHBPU (PHBPU)
80: ABUTH (ABUTH)
at least 70%: efficacy (Puccinia recondita)

O=C(Nc1nsc2c(=O)n(CC3CCCCC3)cnc12)C(F)(F)F [Example I-53]
100: ECHCG (ECHCG) | SETVI (SETVI [6]) | AMARE (AMARE [1]) | VIOTR (VIOTR [2]) | MATIN (MATIN) | POLCO (POLCO) | SETVI (SETVI [3]) | AMARE (AMARE [4]) | VIOTR (VIOTR [5]) | ABUTH (ABUTH) | PHBPU (PHBPU)

COCC(=O)Nc1nsc2c(=O)n(CC3CCCCC3)cnc12 [Example I-69]
100: ECHCG (ECHCG) | SETVI (SETVI [6]) | AMARE (AMARE [1]) | VIOTR (VIOTR [2]) | MATIN (MATIN) | POLCO (POLCO) | SETVI (SETVI [3]) | AMARE (AMARE [4]) | VIOTR (VIOTR [5]) | PHBPU (PHBPU)
90: ABUTH (ABUTH)

O=C(Nc1nsc2c(=O)n(CC3CCCCC3)cnc12)c1ccc(Cl)cc1 [Example I-18]
100: AMARE (AMARE [1]) | VIOTR (VIOTR [2])
80: ALOMY (ALOMY)

O=C(Nc1nsc2c(=O)n(CC3CCCCC3)cnc12)c1cc(Cl)cc(Cl)c1 [Example I-20]
100: AMARE (AMARE [1]) | VIOTR (VIOTR [2])
80: ALOMY (ALOMY)

O=C(Nc1nsc2c(=O)n(CC3CCCCC3)cnc12)c1cccnc1 [Example I-06]
100: AMARE (AMARE [1]) | VIOTR (VIOTR [2]) | AMARE (AMARE [4]) | VIOTR (VIOTR [5]) | ABUTH (ABUTH)
90: ALOMY (ALOMY)

COC(=O)CC(=O)Nc1nsc2c(=O)n(CC3CCCCC3)cnc12 [Example I-71]
100: ECHCG (ECHCG) | SETVI (SETVI [6]) | AMARE (AMARE [1]) | VIOTR (VIOTR [2]) | MATIN (MATIN) | POLCO (POLCO) | SETVI (SETVI [3]) | AMARE (AMARE [4]) | VIOTR (VIOTR [5]) | ABUTH (ABUTH) | PHBPU (PHBPU)
